Article PMC12677633, “Thermosensory TRPV Heterotetramers Drive Seasonal Polyphenism: Molecular Basis of CcIav/CcNan‐PKCα‐AKH/AKHR Signaling in Pear Psyllid Morph Transition” (Advanced Science, 2025)

Assays:
Experiment in all cases: Fluo-4 AM calcium flux in HEK293T cells
[1] = molecular target: T1, BdIav/BdNan heterotetramer (Bactrocera dorsalis, UniProt A0A8N4L2W2+A0ABM3JT49); format: cell-based
T1 construct: gene LOC105228865; ORFs co-expressed in HEK293T cells; 2:2 heterotetramer
T1 sequence (A0ABM3JT49 1-1159): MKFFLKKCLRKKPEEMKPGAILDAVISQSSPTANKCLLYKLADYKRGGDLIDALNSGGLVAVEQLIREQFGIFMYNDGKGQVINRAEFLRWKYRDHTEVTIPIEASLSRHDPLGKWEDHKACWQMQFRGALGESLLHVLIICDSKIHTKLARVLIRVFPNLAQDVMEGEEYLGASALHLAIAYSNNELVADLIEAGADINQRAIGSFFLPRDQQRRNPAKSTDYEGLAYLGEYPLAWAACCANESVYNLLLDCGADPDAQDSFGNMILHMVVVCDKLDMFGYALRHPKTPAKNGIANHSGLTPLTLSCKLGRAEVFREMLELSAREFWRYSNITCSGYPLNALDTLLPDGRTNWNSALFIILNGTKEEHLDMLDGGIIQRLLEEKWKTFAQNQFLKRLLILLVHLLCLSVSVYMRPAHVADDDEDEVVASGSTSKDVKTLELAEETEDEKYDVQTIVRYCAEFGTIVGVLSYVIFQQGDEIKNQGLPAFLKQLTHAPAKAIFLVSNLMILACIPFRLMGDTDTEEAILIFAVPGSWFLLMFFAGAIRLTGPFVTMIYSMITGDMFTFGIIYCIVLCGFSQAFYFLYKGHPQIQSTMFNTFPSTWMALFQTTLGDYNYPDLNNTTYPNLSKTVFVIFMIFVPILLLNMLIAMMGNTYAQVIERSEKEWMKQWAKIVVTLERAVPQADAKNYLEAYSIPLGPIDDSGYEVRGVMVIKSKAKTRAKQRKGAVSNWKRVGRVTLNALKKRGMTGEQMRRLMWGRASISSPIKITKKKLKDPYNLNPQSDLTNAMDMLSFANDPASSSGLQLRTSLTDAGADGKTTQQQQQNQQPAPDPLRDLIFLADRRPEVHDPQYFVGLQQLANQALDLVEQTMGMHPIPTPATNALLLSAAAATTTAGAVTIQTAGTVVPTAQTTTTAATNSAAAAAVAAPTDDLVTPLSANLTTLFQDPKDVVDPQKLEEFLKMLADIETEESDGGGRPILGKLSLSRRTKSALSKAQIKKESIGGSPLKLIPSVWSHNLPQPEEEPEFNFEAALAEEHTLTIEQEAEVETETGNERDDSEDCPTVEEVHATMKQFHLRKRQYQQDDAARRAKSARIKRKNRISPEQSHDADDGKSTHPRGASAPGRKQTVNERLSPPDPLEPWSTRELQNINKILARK
T1 sequence (A0A8N4L2W2 1-846): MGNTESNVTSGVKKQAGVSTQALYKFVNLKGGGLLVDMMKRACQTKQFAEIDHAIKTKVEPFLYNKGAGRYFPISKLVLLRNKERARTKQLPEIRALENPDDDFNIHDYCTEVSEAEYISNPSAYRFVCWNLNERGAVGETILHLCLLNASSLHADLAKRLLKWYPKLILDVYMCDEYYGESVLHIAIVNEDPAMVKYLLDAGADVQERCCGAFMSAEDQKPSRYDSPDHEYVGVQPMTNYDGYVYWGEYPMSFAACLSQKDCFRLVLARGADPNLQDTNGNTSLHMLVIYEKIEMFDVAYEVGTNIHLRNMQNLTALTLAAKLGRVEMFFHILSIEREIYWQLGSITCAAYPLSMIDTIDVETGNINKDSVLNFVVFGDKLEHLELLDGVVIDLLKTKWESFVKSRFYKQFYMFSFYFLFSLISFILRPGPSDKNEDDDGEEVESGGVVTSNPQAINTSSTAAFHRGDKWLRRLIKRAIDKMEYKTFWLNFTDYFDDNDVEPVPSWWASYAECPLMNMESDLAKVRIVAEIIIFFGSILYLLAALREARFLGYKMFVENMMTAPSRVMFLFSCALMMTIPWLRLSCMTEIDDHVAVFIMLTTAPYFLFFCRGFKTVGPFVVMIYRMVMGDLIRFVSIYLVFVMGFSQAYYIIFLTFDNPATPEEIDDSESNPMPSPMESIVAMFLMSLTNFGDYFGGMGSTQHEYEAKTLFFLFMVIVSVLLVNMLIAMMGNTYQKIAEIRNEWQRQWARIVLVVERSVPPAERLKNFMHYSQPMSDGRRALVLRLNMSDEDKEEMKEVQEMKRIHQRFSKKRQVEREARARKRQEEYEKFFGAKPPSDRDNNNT

[2] = test system: T2, HaIav/HaNan heterotetramer; format: cell-based, Harmonia axyridis; details: agonist; 2:2 molar ratio Iav/Nan
T2 construct: gene iav; ORFs co-expressed in HEK293T cells; 2:2 heterotetramer

[3] = test system: T3, CcIav/CcNan heterotetramer; format: cell-based, Cacopsylla chinensis; details: agonist; 2:2 CcIav/CcNan
T3 construct: gene iav; full-length ORFs co-expressed in HEK293T cells from pcDNA3.1-mCherry-P2A; 2:2 heterotetramer

[4] = test system: T4, DcIav/DcNan heterotetramer; format: cell-based, Diaphorina citri; details: agonist; 2:2 molar ratio Iav/Nan
T4 construct: gene iav; ORFs co-expressed in HEK293T cells; 2:2 heterotetramer

Which results are given for `COc1cc(CNC(=O)CCCC/C=C/C(C)C)ccc1O` [capsaicin]?
EC50 [1]: 24.5 µM; EC50 [2]: 24.1 µM; EC50 [3]: 0.0224 µM; EC50 [4]: 57.8 µM
